The subject of series [1] is Apis mellifera. The settings on record: acute; duration: 48 hours; dermal; mortality.
The test system of series [2] is Canidae. The settings on record: Dog Other, clinical signs.
The subject of series [3] is Coturnix japonica.
Series [4] relates to Daphnia magna. As to conditions: chronic/long-term; duration: 21 days; reproduction.
Series [5] relates to Oncorhynchus mykiss.
For series [6], the system named is Oryctolagus sp. The settings on record: acute; oral; mortality.
The subject of series [7] is Rattus norvegicus. As to conditions: reproduction developmental.
Series [8] relates to Tagia sp.
Series [9] has as its system Aphidius rhopalosiphi. Put plainly: LR50; higher = less toxic. As to conditions: not reported; mortality.

Molecules are shown by their SMILES.

For orientation: NOAEL means the highest dose or exposure tested at which no adverse effect was seen.

With `C[N+](C)(C)CCCl.[Cl-]` [Chlormequat chloride], the LD50 in series [1] is more than 65.2 µg/piece; in [3] (acute, oral, mortality), 441 mg/kg-day; in series [6], 115 mg/kg-day. Besides, the no-observed-adverse-effect level (NOAEL) stood at 4 mg/kg-day in [2] (chronic, duration: 1 years, oral); 9 mg/kg-day in series [2] (short-term, duration: 4 weeks); 41 mg/kg-day in series [7] (body weight); 74 mg/kg-day in [7] (reproduction). Further, the LC50 in series [3] (acute, oral, diet, mortality) was more than 310 mg/kg-day; in [5] (acute, duration: 96 hours, mortality) it was more than 100 mg/L; in series [8] (acute, duration: 14 days, mortality), 320 mg/kg. Moreover, the NOEC in series [3] (reproduction developmental) was found to be 54.8 mg/kg-day; in series [4], 2.4 mg/L; in series [5] (chronic/long-term, duration: 21 days, growth) it was 43.1 mg/L; in series [8] (chronic/long-term, duration: 56 days), 680 mg/kg. Also, the LR50 in series [9] was more than 2200 g/ha.

The values are drawn from EPA's ToxValDB 9.5 (doi:10.2903/j.efsa.2009.179r).
